This is an account of results in paper PMC10075506, “Synthesis and biological evaluation of flavonoid-based IP6K2 inhibitors” (Journal of Enzyme Inhibition and Medicinal Chemistry, 2023).

SMILES strings stand for the structures.

One series has as its system hIP6K2. To be noted: read-out: IC50 value of quercetin (IP6K2), reported; different IP6K2 enzyme concentration and reaction temperature; cited from earlier work.
The target in a further series is T1, human IP6K3 (Homo sapiens, UniProt Q96PC2).
T1 construct: made in house; host or cells: Sf9 insect cells (baculovirus, pFASTBAC1)
T1 sequence (Q96PC2 whole entry): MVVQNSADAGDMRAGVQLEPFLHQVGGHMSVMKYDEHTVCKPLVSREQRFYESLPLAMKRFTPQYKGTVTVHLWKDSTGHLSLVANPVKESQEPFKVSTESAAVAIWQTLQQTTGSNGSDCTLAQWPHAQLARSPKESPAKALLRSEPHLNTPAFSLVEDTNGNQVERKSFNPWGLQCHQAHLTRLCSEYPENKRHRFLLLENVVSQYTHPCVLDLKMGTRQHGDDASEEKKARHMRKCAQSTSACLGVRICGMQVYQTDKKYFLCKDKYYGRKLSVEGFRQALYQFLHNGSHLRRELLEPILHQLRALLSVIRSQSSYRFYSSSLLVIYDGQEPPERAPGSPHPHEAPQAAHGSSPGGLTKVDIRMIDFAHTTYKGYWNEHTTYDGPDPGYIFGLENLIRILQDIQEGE
Briefly: ADP-Glo kinase assay, IP6K3 (Liao et al.'s conditions). The series is classed as biochemical. The note with it: for IC50: IP6K3 120 nM, ATP 1 mM. The procedure:
(§1) Inhibition activity of the synthesised compounds against IP6K2 was assessed using ADP-Glo™ Kinase Assay (Promega). Kinase reaction mixtures were first shaking-incubated with individual drugs (diluted in DMSO) for pre-incubation at RT for 15 min, and then ATP was added (final 10 µM) to initiate the reaction. 20 ng of recombinant human IP6K2 protein was used per 15 µL of IP6K2 reaction mixture (50 mM Tris-HCl, pH 6.8, 10 mM MgCl2, 2.5 mM DTT, 0.02% Triton X-100, 10 µM IP6). […] Each detection set was prepared on 96-well (25 µL kinase reaction) as duplicates. Resulting enzyme activity was calculated as following; Activity (%) = ([ADPexperimental]/[ADPDMSO])×100. For IC50 estimation of compounds, kinase assay was prepared on 384-well plates (20 ng of recombinant human IP6K2 protein was used per 5 µL kinase reaction mixture) as duplicates. The final concentrations for IP6K2, IP6, and ATP were 80 nM, 10 μM, and 10 μM, respectively. […] IP6K1 and IP6K3 assays were performed by Liao et al.’s conditions.[25] The final concentrations for IP6K1, IP6, and ATP were 60 nM, 100 μM, and 1 mM, respectively. […] All statistical analyses including IC50 estimation was performed using Prism 7 or Prism 9 (Graphpad Software).
(§2) Full-length human IP6K1, IP6K2, or IP6K3 cDNA was subcloned into pFASTBAC1 plasmid (Gibco) with an N-terminal FLAG epitope sequence, and baculovirus was generated according to the manufacturer’s instructions. Sf9 insect cells were infected with baculovirus and incubated for 72 h. The cells were resuspended in lysis buffer [20 mM Tris–HCl (pH 7.9), 500 mM NaCl, 4 mM MgCl2, 0.4 mM EDTA, 2 mM DTT, 20% glycerol, 1 mM PMSF, and protease inhibitor cocktail (Roche)] and then disrupted with a Dounce homogeniser (pestle A, 3 series of 10 strokes with 10 min interval).
In general terms: ADP-Glo turns the ADP formed in a reaction into a luminescent signal.

The next series has as its target T2, human IP6K1 (Homo sapiens, UniProt Q92551).
T2 construct: made in house; host or cells: Sf9 insect cells (baculovirus, pFASTBAC1)
Briefly: ADP-Glo kinase assay, IP6K1 (Liao et al.'s conditions). The note with it: for IC50: IP6K1 60 nM, ATP 1 mM. The series is classed as biochemical. The procedure: as §1, §2

The nature of another series: in vitro. The note with it: PAMPA. The source says:
Supporting Information Table 1.
artificial membrane permeability assay (PAMPA) as described previously (reference). The apparent permeability
(ranitidine, nadolol, hydrochlorothiazide).
Data are mean ± S.D. (n=3).
Reference: Oh, M.H., Lee, H.J., Jo, S.H., et al. Development of Cassette PAMPA for Permeability Screening. Biol Pharm
(In general: In PAMPA a lipid-coated filter parts donor from acceptor wells.)

The target of the next series is T3, recombinant human IP6K2 (Homo sapiens, UniProt Q9UHH9).
T3 construct: made in house; host or cells: Sf9 insect cells (baculovirus, pFASTBAC1)
T3 sequence (Q9UHH9 1-426): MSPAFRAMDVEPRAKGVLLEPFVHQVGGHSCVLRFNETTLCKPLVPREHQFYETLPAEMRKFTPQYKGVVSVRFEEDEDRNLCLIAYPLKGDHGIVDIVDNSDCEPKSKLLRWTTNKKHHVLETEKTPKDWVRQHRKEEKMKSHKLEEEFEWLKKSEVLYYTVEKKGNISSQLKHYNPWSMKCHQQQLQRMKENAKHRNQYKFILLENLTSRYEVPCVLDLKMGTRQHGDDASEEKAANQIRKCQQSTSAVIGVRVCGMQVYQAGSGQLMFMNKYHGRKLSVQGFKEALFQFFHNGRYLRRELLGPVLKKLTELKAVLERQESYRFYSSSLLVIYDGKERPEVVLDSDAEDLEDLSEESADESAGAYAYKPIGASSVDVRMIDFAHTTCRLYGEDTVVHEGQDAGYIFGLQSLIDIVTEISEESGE
The series can be described thus: ADP-Glo kinase assay, IP6K2. The series is classed as biochemical. The method, then: as §1, §2

Series [1] deals with IP7 synthesis in human colorectal cell line (HCT116). The series can be described thus: cellular IP7 synthesis in HCT116, HPLC of [3H]inositol-labelled inositol phosphates. To be noted: HCT116, compound 10 μM for 6 h. The series is classed as cell-based.
Experimental: For HPLC analysis, 2 × 10^5 cells/60 mm dish of HCT116 were treated with 60 μCi [^3H] myo-inositol (NET1177001MC, PerkinElmer). After 3 days, soluble inositol polyphosphates from HCT116 (human colorectal cancer cell line) were extracted and analysed as previously described.[39] Intracellular inositol phosphates were extracted with acid extraction buffer (1M HClO4, 3 mM EDTA, and 0.1 mg/mL IP6), and neutralised with neutralisation buffer (1M K2CO3 and 3 mM EDTA). The lysates were centrifuged for 10 min, and the soluble fraction was resolved by HPLC as described earlier.[39] The lipid pellet was lysed with 0.1% Triton X-100 in NaOH overnight. […] Quantity of inositol phosphates was presented as total counts/min (CPM) normalised by total lipid contents.
Setting [2] is: final concentration of ATP and IP6 adjusted to 10 μM.

T2 sequence (Q92551 whole entry): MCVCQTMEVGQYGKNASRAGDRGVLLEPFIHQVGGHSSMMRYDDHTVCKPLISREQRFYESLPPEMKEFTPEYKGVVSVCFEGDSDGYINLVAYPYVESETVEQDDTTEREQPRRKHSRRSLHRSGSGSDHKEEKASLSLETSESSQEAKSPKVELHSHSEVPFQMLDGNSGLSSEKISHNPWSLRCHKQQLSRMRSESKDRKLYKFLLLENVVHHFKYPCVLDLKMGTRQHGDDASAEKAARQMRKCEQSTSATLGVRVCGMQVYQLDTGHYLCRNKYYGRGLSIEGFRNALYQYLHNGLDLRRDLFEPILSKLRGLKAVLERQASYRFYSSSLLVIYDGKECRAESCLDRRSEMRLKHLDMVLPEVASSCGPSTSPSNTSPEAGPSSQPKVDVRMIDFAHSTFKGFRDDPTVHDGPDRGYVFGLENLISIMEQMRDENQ

For `O=c1c(O)c(-c2ccc(O)c(O)c2)oc2cc(O)cc(O)c12` [Quercetin, 3,3′,4′,5,7-pentahydroxylflavone], the half-inhibitory concentration (IC50) – broadly, the point on the concentration scale where inhibition reaches its midpoint – is […] with hIP6K2, 4350 nM against human IP6K3 (IP6 100 µM) and 1100 nM against human IP6K1 (IP6 100 µM). The Papp (as a rule, the rate of passage across a membrane or cell layer, normalised by area and donor concentration) in the series “in vitro” amounted to 0.54 ×10⁻⁶ cm/s. The Permeability class entry in the series “in vitro” was “Low”.

In the case of `NS(=O)(=O)c1cc2c(cc1Cl)NCNS2(=O)=O` [Hydrochlorothiazide, hydrochlorothiazide], in the series “in vitro”, the apparent permeability coefficient (Papp) is less than 0.18 ×10⁻⁶ cm/s and the Permeability class result is “Low”.

Regarding `CC(C)(C)NCC(O)COc1cccc2c1CC(O)C(O)C2` (stereo not shown) [Nadolol, nadolol], in the series “in vitro”, the apparent permeability (Papp) was found to be 0.089 ± 0.007 ×10⁻⁶ cm/s and the Permeability class entry is “Low”.

Turning to `COCCc1ccc(OCC(O)CNC(C)C)cc1` (stereo not shown) [Metoprolol, metoprolol], in the series “in vitro”, the Papp was 3.45 ± 0.158 ×10⁻⁶ cm/s and the Permeability class entry is “High”.

With `O=C(O)c1cccc(-c2oc3cc(O)c(O)cc3c(=O)c2O)c1` [Compound 20s, 3–(3,6,7-Trihydroxy-4-oxo-4H-chromen-2-yl)benzoic acid], the half-inhibitory concentration (IC50) at recombinant human IP6K2 was 550 ± 1 nM; against human IP6K3 (IP6 100 µM), 3560 nM; on human IP6K1 (IP6 100 µM) it was 2870 nM. Besides, the “fold more potent IP6K2 inhibition than quercetin” value at recombinant human IP6K2 (IC50 compared with quercetin) is given as 5 fold. Further, the “fold more potent than compound 20r (IP6K2)” value at recombinant human IP6K2 (meta -COOH versus para -COOH) was “approximately 7 fold”. Besides, in series [1], the “cellular IP7 levels” value is recorded as “failed to reduce cellular IP7 levels”. In addition, the “IP6K3 /IP6K2 (IC50 ratio)” value on human IP6K3 (IP6K3 at ATP 1 mM, IP6 100 µM, IP6K2 at ATP 10 µM, IP6 10 µM) was determined as 6.47. For the same compound, the “IC50 ratio of IP6K3/IP6K2” value at human IP6K3 (setting [2]) turned out to be 2.32 fold. At human IP6K1 (IP6K1 at ATP 1 mM, IP6 100 µM, IP6K2 at ATP 10 µM, IP6 10 µM), the “IP6K1 /IP6K2 (IC50 ratio)” value is 5.22. Moreover, the “IC50 ratio of IP6K1/IP6K2” value on human IP6K1 (setting [2]) is listed as 4.65 fold. The same compound displayed a Papp in the series “in vitro” of less than 0.18 ×10⁻⁶ cm/s. Moreover, the Permeability class result in “in vitro” was “Low”.

As to `O=C(N[C@H](CO)[C@H](O)c1ccc([N+](=O)[O-])cc1)C(Cl)Cl` [Chloramphenicol, chloramphenicol], in the series “in vitro”, the Papp was 4.67 ± 0.063 ×10⁻⁶ cm/s and the Permeability class entry was “High”.
